# Measured values: PubChem BioAssay (NCI)
#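 Assay format: 96-well plates, 48-hour exposure. TGI: total growth inhibition.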
# Assays:
# Test in all cases: NCI-60 cell line screen, 48 h
# A549 NSCLC = tested on: A549 NSCLC
# ACHN renal = tested on: ACHN renal
# CAKI-1 renal = tested on: CAKI-1 renal
# CCRF-CEM leukemia = tested on: CCRF-CEM leukemia
# COLO 205 colon = tested on: COLO 205 colon
# DLD-1 colon = tested on: DLD-1 colon
# DMS 114 small cell lung = tested on: DMS 114 small cell lung
# DMS 273 small cell lung = tested on: DMS 273 small cell lung
# EKVX NSCLC = tested on: EKVX NSCLC
# HCC-2998 colon = tested on: HCC-2998 colon
# HCT-116 colon = tested on: HCT-116 colon
# HCT-15 colon = tested on: HCT-15 colon
# HL-60(TB) leukemia = tested on: HL-60(TB) leukemia
# HOP-18 NSCLC = tested on: HOP-18 NSCLC
# HOP-62 NSCLC = tested on: HOP-62 NSCLC
# HT29 colon = tested on: HT29 colon
# IGROV1 ovarian = tested on: IGROV1 ovarian
# K-562 leukemia = tested on: K-562 leukemia
# KM12 colon = tested on: KM12 colon
# KM20L2 colon = tested on: KM20L2 colon
# LOX IMVI melanoma = tested on: LOX IMVI melanoma
# LXFL 529 NSCLC = tested on: LXFL 529 NSCLC
# M14 melanoma = tested on: M14 melanoma
# M19-MEL melanoma = tested on: M19-MEL melanoma
# MALME-3M melanoma = tested on: MALME-3M melanoma
# MOLT-4 leukemia = tested on: MOLT-4 leukemia
# NCI-H226 lung = tested on: NCI-H226 lung
# NCI-H23 lung = tested on: NCI-H23 lung
# NCI-H460 lung = tested on: NCI-H460 lung
# NCI-H522 lung = tested on: NCI-H522 lung
# OVCAR-3 ovarian = tested on: OVCAR-3 ovarian
# OVCAR-4 ovarian = tested on: OVCAR-4 ovarian
# OVCAR-5 ovarian = tested on: OVCAR-5 ovarian
# OVCAR-8 ovarian = tested on: OVCAR-8 ovarian
# RPMI-8226 leukemia = tested on: RPMI-8226 leukemia
# RXF 393 renal = tested on: RXF 393 renal
# SF-268 CNS = tested on: SF-268 CNS
# SF-539 CNS = tested on: SF-539 CNS
# SK-MEL-2 melanoma = tested on: SK-MEL-2 melanoma
# SK-MEL-28 melanoma = tested on: SK-MEL-28 melanoma
# SK-MEL-5 melanoma = tested on: SK-MEL-5 melanoma
# SK-OV-3 ovarian = tested on: SK-OV-3 ovarian
# SN12C renal = tested on: SN12C renal
# SNB-19 CNS = tested on: SNB-19 CNS
# SR leukemia = tested on: SR leukemia
# SW-620 colon = tested on: SW-620 colon
# TK-10 renal = tested on: TK-10 renal
# U251 CNS = tested on: U251 CNS
# UACC-62 melanoma = tested on: UACC-62 melanoma
# UO-31 renal = tested on: UO-31 renal
# XF 498 CNS = tested on: XF 498 CNS
# 786-0 renal = tested on: 786-0 renal
# A498 renal = tested on: A498 renal
# HOP-92 NSCLC = tested on: HOP-92 NSCLC
# RXF-631 renal = tested on: RXF-631 renal
# SF-295 CNS = tested on: SF-295 CNS
# SNB-78 CNS = tested on: SNB-78 CNS
# UACC-257 melanoma = tested on: UACC-257 melanoma
# SNB-75 CNS = tested on: SNB-75 CNS
smiles,measurement,setting,value
OC1CCOc2ccccc21 (stereo not given),TGI,A549 NSCLC,> 100 µM
same,TGI,ACHN renal,> 100 µM
same,TGI,CAKI-1 renal,> 100 µM
same,TGI,CCRF-CEM leukemia,> 100 µM
same,TGI,COLO 205 colon,> 100 µM
same,TGI,DLD-1 colon,> 100 µM
same,TGI,DMS 114 small cell lung,> 100 µM
same,TGI,DMS 273 small cell lung,> 100 µM
same,TGI,EKVX NSCLC,> 100 µM
same,TGI,HCC-2998 colon,> 100 µM
same,TGI,HCT-116 colon,> 100 µM
same,TGI,HCT-15 colon,> 100 µM
same,TGI,HL-60(TB) leukemia,> 100 µM
same,TGI,HOP-18 NSCLC,> 100 µM
same,TGI,HOP-62 NSCLC,> 100 µM
same,TGI,HT29 colon,> 100 µM
same,TGI,IGROV1 ovarian,> 100 µM
same,TGI,K-562 leukemia,> 100 µM
same,TGI,KM12 colon,> 100 µM
same,TGI,KM20L2 colon,> 100 µM
same,TGI,LOX IMVI melanoma,> 100 µM
same,TGI,LXFL 529 NSCLC,> 100 µM
same,TGI,M14 melanoma,> 100 µM
same,TGI,M19-MEL melanoma,> 100 µM
same,TGI,MALME-3M melanoma,> 100 µM
same,TGI,MOLT-4 leukemia,> 100 µM
same,TGI,NCI-H226 lung,> 100 µM
same,TGI,NCI-H23 lung,> 100 µM
same,TGI,NCI-H460 lung,> 100 µM
same,TGI,NCI-H522 lung,> 100 µM
same,TGI,OVCAR-3 ovarian,> 100 µM
same,TGI,OVCAR-4 ovarian,> 100 µM
same,TGI,OVCAR-5 ovarian,> 100 µM
same,TGI,OVCAR-8 ovarian,> 100 µM
same,TGI,RPMI-8226 leukemia,> 100 µM
same,TGI,RXF 393 renal,> 100 µM
same,TGI,SF-268 CNS,> 100 µM
same,TGI,SF-539 CNS,> 100 µM
same,TGI,SK-MEL-2 melanoma,> 100 µM
same,TGI,SK-MEL-28 melanoma,> 100 µM
same,TGI,SK-MEL-5 melanoma,> 100 µM
same,TGI,SK-OV-3 ovarian,> 100 µM
same,TGI,SN12C renal,> 100 µM
same,TGI,SNB-19 CNS,> 100 µM
same,TGI,SR leukemia,> 100 µM
same,TGI,SW-620 colon,> 100 µM
same,TGI,TK-10 renal,> 100 µM
same,TGI,U251 CNS,> 100 µM
same,TGI,UACC-62 melanoma,> 100 µM
same,TGI,UO-31 renal,> 100 µM
same,TGI,XF 498 CNS,> 100 µM
COC(=O)C(Cc1cc(OC)c(OC)c(OC)c1)c1ccc(OC)cc1 (stereo not given),TGI,786-0 renal,> 100 µM
same,TGI,A498 renal,> 100 µM
same,TGI,A549 NSCLC,> 100 µM
same,TGI,ACHN renal,> 100 µM
same,TGI,CAKI-1 renal,> 100 µM
same,TGI,CCRF-CEM leukemia,> 100 µM
same,TGI,COLO 205 colon,> 100 µM
same,TGI,DLD-1 colon,> 100 µM
same,TGI,DMS 114 small cell lung,> 100 µM
same,TGI,DMS 273 small cell lung,> 100 µM
same,TGI,EKVX NSCLC,> 100 µM
same,TGI,HCT-116 colon,> 100 µM
same,TGI,HCT-15 colon,> 100 µM
same,TGI,HL-60(TB) leukemia,> 100 µM
same,TGI,HOP-18 NSCLC,> 100 µM
same,TGI,HOP-62 NSCLC,> 100 µM
same,TGI,HOP-92 NSCLC,> 100 µM
same,TGI,HT29 colon,> 100 µM
same,TGI,IGROV1 ovarian,> 100 µM
same,TGI,K-562 leukemia,> 100 µM
same,TGI,KM12 colon,> 100 µM
same,TGI,KM20L2 colon,> 100 µM
same,TGI,LOX IMVI melanoma,> 100 µM
same,TGI,LXFL 529 NSCLC,> 100 µM
same,TGI,M14 melanoma,> 100 µM
same,TGI,M19-MEL melanoma,> 100 µM
same,TGI,MALME-3M melanoma,> 100 µM
same,TGI,MOLT-4 leukemia,> 100 µM
same,TGI,NCI-H226 lung,> 100 µM
same,TGI,NCI-H460 lung,> 100 µM
same,TGI,NCI-H522 lung,> 100 µM
same,TGI,OVCAR-3 ovarian,> 100 µM
same,TGI,OVCAR-4 ovarian,> 100 µM
same,TGI,OVCAR-5 ovarian,> 100 µM
same,TGI,OVCAR-8 ovarian,> 100 µM
same,TGI,RPMI-8226 leukemia,> 100 µM
same,TGI,RXF 393 renal,> 100 µM
same,TGI,RXF-631 renal,> 100 µM
same,TGI,SF-268 CNS,> 100 µM
same,TGI,SF-295 CNS,> 100 µM
same,TGI,SF-539 CNS,> 100 µM
same,TGI,SK-MEL-28 melanoma,> 100 µM
same,TGI,SK-MEL-5 melanoma,> 100 µM
same,TGI,SN12C renal,> 100 µM
same,TGI,SNB-19 CNS,> 100 µM
same,TGI,SNB-78 CNS,> 100 µM
same,TGI,SW-620 colon,> 100 µM
same,TGI,TK-10 renal,> 100 µM
same,TGI,U251 CNS,> 100 µM
same,TGI,UACC-257 melanoma,> 100 µM
same,TGI,UACC-62 melanoma,> 100 µM
same,TGI,UO-31 renal,> 100 µM
COC1=CCC=C(C[C@@H]2NCCc3cc(OC)c(OC)cc32)C1,TGI,786-0 renal,> 100 µM
same,TGI,A498 renal,> 100 µM
same,TGI,A549 NSCLC,> 100 µM
same,TGI,ACHN renal,> 100 µM
same,TGI,CAKI-1 renal,> 100 µM
same,TGI,CCRF-CEM leukemia,> 100 µM
same,TGI,COLO 205 colon,> 100 µM
same,TGI,DLD-1 colon,> 100 µM
same,TGI,DMS 273 small cell lung,> 100 µM
same,TGI,EKVX NSCLC,> 100 µM
same,TGI,HCC-2998 colon,> 100 µM
same,TGI,HCT-116 colon,> 100 µM
same,TGI,HCT-15 colon,> 100 µM
same,TGI,HL-60(TB) leukemia,> 100 µM
same,TGI,HOP-62 NSCLC,> 100 µM
same,TGI,HOP-92 NSCLC,> 100 µM
same,TGI,HT29 colon,> 100 µM
same,TGI,IGROV1 ovarian,> 100 µM
same,TGI,K-562 leukemia,> 100 µM
same,TGI,KM12 colon,> 100 µM
same,TGI,KM20L2 colon,> 100 µM
same,TGI,LOX IMVI melanoma,> 100 µM
same,TGI,LXFL 529 NSCLC,> 100 µM
same,TGI,M14 melanoma,> 100 µM
same,TGI,M19-MEL melanoma,> 100 µM
same,TGI,MALME-3M melanoma,> 100 µM
same,TGI,MOLT-4 leukemia,> 100 µM
same,TGI,NCI-H226 lung,> 100 µM
same,TGI,NCI-H23 lung,> 100 µM
same,TGI,NCI-H460 lung,> 100 µM
same,TGI,NCI-H522 lung,> 100 µM
same,TGI,OVCAR-3 ovarian,> 100 µM
same,TGI,OVCAR-4 ovarian,> 100 µM
same,TGI,OVCAR-5 ovarian,> 100 µM
same,TGI,OVCAR-8 ovarian,> 100 µM
same,TGI,RPMI-8226 leukemia,> 100 µM
same,TGI,RXF 393 renal,> 100 µM
same,TGI,SF-268 CNS,> 100 µM
same,TGI,SF-295 CNS,> 100 µM
same,TGI,SF-539 CNS,> 100 µM
same,TGI,SK-MEL-2 melanoma,> 100 µM
same,TGI,SK-MEL-28 melanoma,> 100 µM
same,TGI,SK-MEL-5 melanoma,> 100 µM
same,TGI,SK-OV-3 ovarian,> 100 µM
same,TGI,SN12C renal,> 100 µM
same,TGI,SNB-19 CNS,> 100 µM
same,TGI,SNB-75 CNS,> 100 µM
same,TGI,SNB-78 CNS,> 100 µM
same,TGI,SW-620 colon,> 100 µM
same,TGI,TK-10 renal,> 100 µM
same,TGI,U251 CNS,> 100 µM
same,TGI,UACC-257 melanoma,> 100 µM
same,TGI,UACC-62 melanoma,> 100 µM
same,TGI,UO-31 renal,> 100 µM
same,TGI,XF 498 CNS,> 100 µM
Cc1[nH]nc(N)c1C(N)=O,TGI,A498 renal,> 100 µM
same,TGI,A549 NSCLC,> 100 µM
same,TGI,ACHN renal,> 100 µM
same,TGI,CAKI-1 renal,> 100 µM
same,TGI,CCRF-CEM leukemia,> 100 µM
same,TGI,COLO 205 colon,> 100 µM
same,TGI,DLD-1 colon,> 100 µM
same,TGI,DMS 114 small cell lung,> 100 µM
same,TGI,DMS 273 small cell lung,> 100 µM
same,TGI,EKVX NSCLC,> 100 µM
same,TGI,HCC-2998 colon,> 100 µM
same,TGI,HCT-15 colon,> 100 µM
same,TGI,HL-60(TB) leukemia,> 100 µM
same,TGI,HT29 colon,> 100 µM
same,TGI,IGROV1 ovarian,> 100 µM
same,TGI,K-562 leukemia,> 100 µM
same,TGI,KM12 colon,> 100 µM
same,TGI,KM20L2 colon,> 100 µM
same,TGI,LOX IMVI melanoma,> 100 µM
same,TGI,LXFL 529 NSCLC,> 100 µM
same,TGI,M14 melanoma,> 100 µM
same,TGI,MALME-3M melanoma,> 100 µM
same,TGI,MOLT-4 leukemia,> 100 µM
same,TGI,NCI-H23 lung,> 100 µM
same,TGI,NCI-H522 lung,> 100 µM
same,TGI,OVCAR-4 ovarian,> 100 µM
same,TGI,OVCAR-5 ovarian,> 100 µM
same,TGI,OVCAR-8 ovarian,> 100 µM
same,TGI,RPMI-8226 leukemia,> 100 µM
same,TGI,RXF 393 renal,56.1 µM
same,TGI,SF-268 CNS,> 100 µM
same,TGI,SF-295 CNS,> 100 µM
same,TGI,SF-539 CNS,> 100 µM
same,TGI,SK-MEL-2 melanoma,> 100 µM
same,TGI,SK-MEL-28 melanoma,> 100 µM
same,TGI,SK-MEL-5 melanoma,> 100 µM
same,TGI,SK-OV-3 ovarian,> 100 µM
same,TGI,SN12C renal,> 100 µM
same,TGI,SNB-19 CNS,> 100 µM
same,TGI,SNB-75 CNS,> 100 µM
same,TGI,SNB-78 CNS,> 100 µM
same,TGI,SW-620 colon,> 100 µM
same,TGI,TK-10 renal,> 100 µM
same,TGI,UACC-257 melanoma,> 100 µM
same,TGI,UACC-62 melanoma,> 100 µM
same,TGI,UO-31 renal,> 100 µM
same,TGI,XF 498 CNS,> 100 µM
